Patent US20250145665A1, “MACROCYCLIC PEPTIDES USEFUL AS MODULATORS OF TNF ALPHA” (Bristol-Myers Squibb Company, priority 2023, published 2025)
Positions of bridges follow the written chain, without caps; N, C: chain ends. Non-standard residues stand in square brackets, D forms with d. Residues, ends and D or L forms follow the SMILES beside them. Bip(4'-COOH) = N[C@@H](Cc1ccc(-c2ccc(C(=O)O)cc2)cc1)C(=O)O; Bip(4'-NHAc) = CC(=O)Nc1ccc(-c2ccc(C[C@H](N)C(=O)O)cc2)cc1; Ala(morpholin-4-yl) = N[C@@H](CN1CCOCC1)C(=O)O; Bip = N[C@@H](Cc1ccc(-c2ccccc2)cc1)C(=O)O; 3Pal = N[C@@H](Cc1cccnc1)C(=O)O; Sar = CNCC(=O)O

Biological target: TNFα (Homo sapiens, UniProt P01375)
Test: TNF-Induced HEK-Blue Assay
Assay type: cell-based
Settings: HEK-Blue-CD40L cells, NF-kB-driven secreted alkaline phosphatase reporter; TNFα 0.5 ng/ml; 18 h; read-out: TNF induced HEK-Blue assay IC50 value

TNFα, sequence (P01375 77-233 limits assumed): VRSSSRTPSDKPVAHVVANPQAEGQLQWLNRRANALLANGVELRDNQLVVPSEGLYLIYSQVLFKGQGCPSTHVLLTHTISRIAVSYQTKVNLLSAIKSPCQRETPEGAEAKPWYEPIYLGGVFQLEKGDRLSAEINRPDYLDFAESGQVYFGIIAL

| Compound | IC50 [nM] |
| --- | --- |
| CC(C)C[C@@H]1NC(=O)[C@H](CCCNC(=N)N)NC(=O)[C@H](C(C)C)NC(=O)[C@@H]2CCCN2C(=O)[C@H](C(C)C)NC(=O)[C@H](CCCNC(=N)N)NC(=O)[C@H](CC(=O)O)NC(=O)[C@@H]2CCCN2C(=O)CN(C)C(=O)[C@H](Cc2ccc(-c3ccccc3)cc2)NC(=O)[C@H](Cc2ccc(-c3ccc(C(=O)O)cc3)cc2)NC(=O)[C@H](CN2CCOCC2)NC(=O)CSC[C@@H](C(=O)NCC(N)=O)NC1=O [Example 120] ({CH2CO}-[Ala(morpholin-4-yl)][Bip(4'-COOH)][Bip][Sar]PDRVPVRLCG-NH2; thioether N-13) | 50 to 200 |
| CC(C)C[C@@H]1NC(=O)[C@H](Cc2ccc(O)cc2)NC(=O)[C@H](C(C)C)NC(=O)[C@@H]2CCCN2C(=O)[C@H](C(C)C)NC(=O)[C@H](CCCNC(=N)N)NC(=O)[C@H](CC(=O)O)NC(=O)[C@H](Cc2ccc(O)cc2)NC(=O)CN(C)C(=O)[C@H](Cc2ccc(-c3ccccc3)cc2)NC(=O)[C@H](Cc2ccc(-c3ccc(C(=O)O)cc3)cc2)NC(=O)[C@H](CN2CCOCC2)NC(=O)CSC[C@@H](C(=O)NCC(N)=O)NC1=O [Example 121] ({CH2CO}-[Ala(morpholin-4-yl)][Bip(4'-COOH)][Bip][Sar]YDRVPVYLCG-NH2; thioether N-13) | 200 to 2000 |
| CC(C)C[C@@H]1NC(=O)[C@H](CCCNC(=N)N)NC(=O)[C@H](C(C)C)NC(=O)[C@@H]2CCCN2C(=O)[C@H](C(C)C)NC(=O)[C@@H](CCCNC(=N)N)NC(=O)[C@H](CC(=O)O)NC(=O)[C@@H]2CCCN2C(=O)CN(C)C(=O)[C@H](Cc2ccc(-c3ccccc3)cc2)NC(=O)[C@H](Cc2ccc(-c3ccc(C(=O)O)cc3)cc2)NC(=O)[C@H](CN2CCOCC2)NC(=O)CSC[C@@H](C(=O)NCC(N)=O)NC1=O [Example 123] ({CH2CO}-[Ala(morpholin-4-yl)][Bip(4'-COOH)][Bip][Sar]PD[dR]VPVRLCG-NH2; thioether N-13) | 50 to 200 |
| CC(=O)Nc1ccc(-c2ccc(C[C@@H]3NC(=O)[C@H](Cc4ccc(-c5ccccc5)cc4)NC(=O)[C@H](CN4CCOCC4)NC(=O)CSC[C@@H](C(=O)NCC(N)=O)NC(=O)[C@H](CC(C)C)NC(=O)[C@H](CCCNC(=N)N)NC(=O)[C@H](C(C)C)NC(=O)[C@@H]4CCCN4C(=O)[C@H](C(C)C)NC(=O)[C@H](CCCNC(=N)N)NC(=O)[C@H](CC(=O)O)NC(=O)[C@@H]4CCCN4C(=O)CN(C)C3=O)cc2)cc1 [Example 126] ({CH2CO}-[Ala(morpholin-4-yl)][Bip][Bip(4'-NHAc)][Sar]PDRVPVRLCG-NH2; thioether N-13) | 50 to 200 |
| CC(=O)Nc1ccc(-c2ccc(C[C@@H]3NC(=O)[C@H](Cc4ccc(-c5ccccc5)cc4)NC(=O)[C@H](CN4CCOCC4)NC(=O)CSC[C@@H](C(=O)NCC(N)=O)NC(=O)[C@H](CC(C)C)NC(=O)[C@H](CCCNC(=N)N)NC(=O)[C@H](C(C)C)NC(=O)[C@@H]4CCCN4C(=O)[C@H](Cc4ccc(O)cc4)NC(=O)[C@H](CCCNC(=N)N)NC(=O)[C@H](CC(=O)O)NC(=O)[C@@H]4CCCN4C(=O)CN(C)C3=O)cc2)cc1 [Example 127] ({CH2CO}-[Ala(morpholin-4-yl)][Bip][Bip(4'-NHAc)][Sar]PDRYPVRLCG-NH2; thioether N-13) | 50 to 200 |
| CC(=O)Nc1ccc(-c2ccc(C[C@@H]3NC(=O)[C@H](Cc4ccc(-c5ccccc5)cc4)NC(=O)[C@H](CN4CCOCC4)NC(=O)CSC[C@@H](C(=O)NCC(N)=O)NC(=O)[C@H](CC(C)C)NC(=O)[C@H](CCCNC(=N)N)NC(=O)[C@H](C(C)C)NC(=O)[C@@H]4CCCN4C(=O)[C@H](C(C)C)NC(=O)[C@@H](CCCNC(=N)N)NC(=O)[C@H](CC(=O)O)NC(=O)[C@@H]4CCCN4C(=O)CN(C)C3=O)cc2)cc1 [Example 128] ({CH2CO}-[Ala(morpholin-4-yl)][Bip][Bip(4'-NHAc)][Sar]PD[dR]VPVRLCG-NH2; thioether N-13) | < 50 |
| CC(C)C[C@@H]1NC(=O)[C@H](CCCNC(=N)N)NC(=O)[C@H](C(C)C)NC(=O)[C@@H]2CCCN2C(=O)[C@H](C(C)C)NC(=O)[C@@H](CCCNC(=N)N)NC(=O)[C@H](CC(=O)O)NC(=O)[C@@H]2CCCN2C(=O)CNC(=O)[C@H](Cc2ccc(-c3ccccc3)cc2)NC(=O)[C@H](Cc2ccc(-c3ccccc3)cc2)NC(=O)[C@H](CN2CCOCC2)NC(=O)CSC[C@@H](C(=O)NCC(N)=O)NC1=O [Example 130] ({CH2CO}-[Ala(morpholin-4-yl)][Bip][Bip]GPD[dR]VPVRLCG-NH2; thioether N-13) | 200 to 2000 |

Results, then the compound that gave them:

| IC50 [nM] | Compound |
| --- | --- |
| 200 to 2000 | CC(C)C[C@@H]1NC(=O)[C@H](Cc2ccc(O)cc2)NC(=O)[C@H](C(C)C)NC(=O)[C@@H]2CCCN2C(=O)[C@H](Cc2cccnc2)NC(=O)[C@H](CCCNC(=N)N)NC(=O)[C@H](CC(=O)O)NC(=O)[C@H](Cc2ccc(O)cc2)NC(=O)CN(C)C(=O)[C@H](Cc2ccc(-c3ccccc3)cc2)NC(=O)[C@H](Cc2ccc(-c3ccccc3)cc2)NC(=O)[C@H](CN2CCOCC2)NC(=O)CSC[C@@H](C(=O)NCC(N)=O)NC1=O [Example 115] ({CH2CO}-[Ala(morpholin-4-yl)][Bip][Bip][Sar]YDR[3Pal]PVYLCG-NH2; thioether N-13) |
| 50 to 200 | CC(C)C[C@@H]1NC(=O)[C@H](Cc2ccc(O)cc2)NC(=O)[C@H](C(C)C)NC(=O)[C@@H]2CCCN2C(=O)[C@H](Cc2cccnc2)NC(=O)[C@H](CCCNC(=N)N)NC(=O)[C@H](CC(=O)O)NC(=O)[C@@H]2CCCN2C(=O)CN(C)C(=O)[C@H](Cc2ccc(-c3ccccc3)cc2)NC(=O)[C@H](Cc2ccc(-c3ccccc3)cc2)NC(=O)[C@H](CN2CCOCC2)NC(=O)CSC[C@@H](C(=O)NCC(N)=O)NC1=O [Example 116] ({CH2CO}-[Ala(morpholin-4-yl)][Bip][Bip][Sar]PDR[3Pal]PVYLCG-NH2; thioether N-13) |
| 200 to 2000 | CC(C)C[C@@H]1NC(=O)[C@H](CCCNC(=N)N)NC(=O)[C@H](C(C)C)NC(=O)[C@@H]2CCCN2C(=O)[C@H](Cc2cccnc2)NC(=O)[C@@H](CCCNC(=N)N)NC(=O)[C@H](CC(=O)O)NC(=O)[C@H](Cc2ccc(O)cc2)NC(=O)CN(C)C(=O)[C@H](Cc2ccc(-c3ccccc3)cc2)NC(=O)[C@H](Cc2ccc(-c3ccccc3)cc2)NC(=O)[C@H](CN2CCOCC2)NC(=O)CSC[C@@H](C(=O)NCC(N)=O)NC1=O [Example 117] ({CH2CO}-[Ala(morpholin-4-yl)][Bip][Bip][Sar]YD[dR][3Pal]PVRLCG-NH2; thioether N-13) |
| 200 to 2000 | CC(C)C[C@@H]1NC(=O)[C@H](Cc2ccc(O)cc2)NC(=O)[C@H](C(C)C)NC(=O)[C@@H]2CCCN2C(=O)[C@H](Cc2cccnc2)NC(=O)[C@@H](CCCNC(=N)N)NC(=O)[C@H](CC(=O)O)NC(=O)[C@H](Cc2ccc(O)cc2)NC(=O)CN(C)C(=O)[C@H](Cc2ccc(-c3ccccc3)cc2)NC(=O)[C@H](Cc2ccc(-c3ccccc3)cc2)NC(=O)[C@H](CN2CCOCC2)NC(=O)CSC[C@@H](C(=O)NCC(N)=O)NC1=O [Example 118] ({CH2CO}-[Ala(morpholin-4-yl)][Bip][Bip][Sar]YD[dR][3Pal]PVYLCG-NH2; thioether N-13) |
| 200 to 2000 | CC(C)C[C@@H]1NC(=O)[C@H](Cc2ccc(O)cc2)NC(=O)[C@H](C(C)C)NC(=O)[C@@H]2CCCN2C(=O)[C@H](Cc2cccnc2)NC(=O)[C@@H](CCCNC(=N)N)NC(=O)[C@H](CC(=O)O)NC(=O)[C@@H]2CCCN2C(=O)CN(C)C(=O)[C@H](Cc2ccc(-c3ccccc3)cc2)NC(=O)[C@H](Cc2ccc(-c3ccccc3)cc2)NC(=O)[C@H](CN2CCOCC2)NC(=O)CSC[C@@H](C(=O)NCC(N)=O)NC1=O [Example 119] ({CH2CO}-[Ala(morpholin-4-yl)][Bip][Bip][Sar]PD[dR][3Pal]PVYLCG-NH2; thioether N-13) |
| 200 to 2000 | CC(C)C[C@@H]1NC(=O)[C@H](CCCNC(=N)N)NC(=O)[C@H](C(C)C)NC(=O)[C@@H]2CCCN2C(=O)[C@H](Cc2ccc(O)cc2)NC(=O)[C@H](CCCNC(=N)N)NC(=O)[C@H](CC(=O)O)NC(=O)[C@@H]2CCCN2C(=O)CN(C)C(=O)[C@H](Cc2ccc(-c3ccccc3)cc2)NC(=O)[C@H](Cc2ccc(-c3ccc(C(=O)O)cc3)cc2)NC(=O)[C@H](CN2CCOCC2)NC(=O)CSC[C@@H](C(=O)NCC(N)=O)NC1=O [Example 122] ({CH2CO}-[Ala(morpholin-4-yl)][Bip(4'-COOH)][Bip][Sar]PDRYPVRLCG-NH2; thioether N-13) |
| 50 to 200 | CC(C)C[C@@H]1NC(=O)[C@H](Cc2ccc(O)cc2)NC(=O)[C@H](C(C)C)NC(=O)[C@@H]2CCCN2C(=O)[C@H](C(C)C)NC(=O)[C@H](CCCNC(=N)N)NC(=O)[C@H](CC(=O)O)NC(=O)[C@@H]2CCCN2C(=O)CN(C)C(=O)[C@H](Cc2ccc(-c3ccccc3)cc2)NC(=O)[C@H](Cc2ccc(-c3ccc(C(=O)O)cc3)cc2)NC(=O)[C@H](CN2CCOCC2)NC(=O)CSC[C@@H](C(=O)NCC(N)=O)NC1=O [Example 124] ({CH2CO}-[Ala(morpholin-4-yl)][Bip(4'-COOH)][Bip][Sar]PDRVPVYLCG-NH2; thioether N-13) |
| < 50 | CC(=O)Nc1ccc(-c2ccc(C[C@@H]3NC(=O)[C@H](Cc4ccc(-c5ccccc5)cc4)NC(=O)[C@H](CN4CCOCC4)NC(=O)CSC[C@@H](C(=O)NCC(N)=O)NC(=O)[C@H](CC(C)C)NC(=O)[C@H](Cc4ccc(O)cc4)NC(=O)[C@H](C(C)C)NC(=O)[C@@H]4CCCN4C(=O)[C@H](C(C)C)NC(=O)[C@@H](CCCNC(=N)N)NC(=O)[C@H](CC(=O)O)NC(=O)[C@@H]4CCCN4C(=O)CN(C)C3=O)cc2)cc1 [Example 125] ({CH2CO}-[Ala(morpholin-4-yl)][Bip][Bip(4'-NHAc)][Sar]PD[dR]VPVYLCG-NH2; thioether N-13) |
| 200 to 2000 | CC(C)C[C@@H]1NC(=O)[C@H](Cc2ccc(O)cc2)NC(=O)[C@H](C(C)C)NC(=O)[C@@H]2CCCN2C(=O)[C@H](C(C)C)NC(=O)[C@@H](CCCNC(=N)N)NC(=O)[C@H](CC(=O)O)NC(=O)[C@@H]2CCCN2C(=O)CNC(=O)[C@H](Cc2ccc(-c3ccccc3)cc2)NC(=O)[C@H](Cc2ccc(-c3ccccc3)cc2)NC(=O)[C@H](CN2CCOCC2)NC(=O)CSC[C@@H](C(=O)NCC(N)=O)NC1=O [Example 129] ({CH2CO}-[Ala(morpholin-4-yl)][Bip][Bip]GPD[dR]VPVYLCG-NH2; thioether N-13) |
